Here are results for two molecules from US20160325113A1, “Phototherapy Devices and Methods Comprising Optionally Substituted Quinquiesphenyl Compounds” (NITTO DENKO CORPORATION, priority 2012, published 2016).

Molecules are shown by their SMILES. Like-named read-outs stand apart in the source and are kept apart here.

Experiment [1] in a line: Intravenous verteporphin plus red OLED illumination of the retina, age-related macular degeneration. Format: in vivo, person. As to conditions: about 6 mg/m^2 i.v.; retina illuminated with red OLED about 15 minutes after start of infusion.
Protocol: Verteporphin is intravenously injected, over a period of about 10 minutes at a rate of about 3 mL/min, to a person suffering from age-related macular degeneration. The verteporphin (7.5 mL of 2 mg/mL reconstituted solution, available as Visudyne® from Novartis) is diluted with 5% dextrose to a volume of 30 mL using a sufficient quantity of the reconstituted verteporphin so that the total dose injected is about 6 mg/m^2 of body surface. About 15 minutes after the start of the 10 minute infusion of verteporphin, the verteporphin is activated by illuminating the retina with a red light-emitting OLED device as set forth in Example 2.
Experiment [2] is described as follows: Intravenous verteporphin plus red OLED illumination of the retina, pathological myopia. The class given is in vivo, person. As to conditions: about 6 mg/m^2 i.v.; retina illuminated with red OLED about 15 minutes after start of infusion.
Protocol: Verteporphin is intravenously injected, over a period of about 10 minutes at a rate of about 3 mL/min, to a person suffering from pathological myopia. The verteporphin (7.5 mL of 2 mg/mL reconstituted solution, available as Visudyne® from Novartis) is diluted with 5% dextrose to a volume of 30 mL using a sufficient quantity of the reconstituted verteporphin so that the total dose injected is about 6 mg/m^2 of body surface. About 15 minutes after the start of the 10 minute infusion of verteporphin, the verteporphin is activated by illuminating the retina with a red light-emitting OLED device as set forth in Example 2. […] The treatment is repeated as needed.
On the set-up of experiment [3]: species or system person. Conditions: in vivo, iv.
Experiment [4] relates to actinic keratoses lesions. Nature of the experiment: Topical photosensitizer plus red OLED illumination of actinic keratoses lesions. Conditions: 20% topical solution; illuminated with red OLED about 14-18 hours after application.
Protocol: About 14-18 hours after application, the treated lesions are illuminated with a red light-emitting OLED device constructed as set forth in Example 2.
The treatment is repeated as needed.
The excess cream is removed with saline, and the lesions are illuminated with the red light-emitting OLED constructed as set forth in Example 2.

As for `C=Cc1c(C)c2cc3nc(cc4[nH]c(cc5nc(cc1[nH]2)C(C)=C5CCC(=O)O)c(CCC(=O)OC)c4C)[C@@]1(C)C3=CC=C(C(=O)OC)[C@H]1C(=O)OC` [Verteporphin], the “patient's vision after treatment” value in experiment [1], in experiment [2] and in experiment [3] was “stabilized” in each case.
`Cl.NCC(=O)CCC(=O)O` [5-Aminolevulinic acid HCl]: the “number or severity of the lesions after treatment” value in experiment [4] was “reduced”.
